Data published in article PMC8360157, “The chemical compound ‘Heatin’ stimulates hypocotyl elongation and interferes with the Arabidopsis NIT1‐subfamily of nitrilases” (The Plant Journal, 2021).

Molecular target: T1, NIT1 (NITRILASE1) (Arabidopsis thaliana, UniProt P32961)
T1 construct: recombinant, 6xHis-tagged, expressed in Escherichia coli, (NH4)2SO4 precipitation, Ni-NTA and PD-10 purified; tag cleavage not mentioned
T1 sequence (P32961 2-346): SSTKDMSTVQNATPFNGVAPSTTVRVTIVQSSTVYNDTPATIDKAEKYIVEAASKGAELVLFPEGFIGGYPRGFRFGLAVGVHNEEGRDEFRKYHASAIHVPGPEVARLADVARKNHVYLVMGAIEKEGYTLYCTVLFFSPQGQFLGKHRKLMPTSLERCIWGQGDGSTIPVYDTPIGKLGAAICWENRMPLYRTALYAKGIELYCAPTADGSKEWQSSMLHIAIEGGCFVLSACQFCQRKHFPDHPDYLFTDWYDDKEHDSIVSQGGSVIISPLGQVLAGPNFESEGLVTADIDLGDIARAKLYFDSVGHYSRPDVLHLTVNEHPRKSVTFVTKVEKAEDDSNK
Experiment: Berthelot colorimetric ammonia assay; IC50 by linear-regression interpolation
Assay type: biochemical

## CC(Nc1cccc2ccccc12)C(=O)NN=Cc1c(O)ccc2ccccc12 (stereo not shown) [D, N'‐[(2‐hydroxy‐1‐naphthyl)methylene]‐2‐(1‐naphthylamino)propanohydrazide]
  IC50: ~20.7 µM
